One data set addresses T1, ACAT of HepG2 cells (Homo sapiens, UniProt P35610).
T1 construct: endogenous in cells; host or cells: HepG2
T1 sequence (P35610 1-550): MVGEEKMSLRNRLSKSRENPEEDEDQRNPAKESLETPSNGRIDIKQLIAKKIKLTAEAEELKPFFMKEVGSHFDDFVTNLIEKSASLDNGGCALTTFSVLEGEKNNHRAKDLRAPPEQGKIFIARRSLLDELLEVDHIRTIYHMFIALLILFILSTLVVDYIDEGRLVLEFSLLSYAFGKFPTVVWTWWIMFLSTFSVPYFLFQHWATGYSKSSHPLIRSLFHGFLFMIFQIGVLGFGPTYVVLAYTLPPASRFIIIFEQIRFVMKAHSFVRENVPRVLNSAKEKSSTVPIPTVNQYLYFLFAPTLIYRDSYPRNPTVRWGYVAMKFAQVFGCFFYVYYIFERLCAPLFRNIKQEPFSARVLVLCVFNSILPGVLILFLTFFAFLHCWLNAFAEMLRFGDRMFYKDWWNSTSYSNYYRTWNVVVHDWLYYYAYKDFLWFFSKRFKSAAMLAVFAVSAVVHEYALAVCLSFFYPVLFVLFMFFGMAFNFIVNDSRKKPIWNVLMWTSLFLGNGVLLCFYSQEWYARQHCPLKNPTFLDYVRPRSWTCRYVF
Briefly: Inhibitory activity against ACAT of HepG2 cells derived from human liver cancer cells. Particulars: radio-labelled oleic acid/BSA complex, cholesterol oleate produced. It is filed as cell-based. On the procedure: Inhibitory Activity against ACAT of HepG2 cells Derived from Human Liver Cancer Cells Inhibitory activities of the compounds of the present invention against ACAT were measured by the method described below. HepG2 cells derived from human liver cancer cells were used for the measurement of the ACAT activity. A complex of radio-labelled oleic acid and bovine serum albumin was added to a culture of the cells, and the activity was measured by observing the amount of radio-labelled cholesterol oleate produced from the radio-labelled oleic acid in the cells.

A short description of data set [1]: Moisture absorption under ambient atmosphere (Karl Fisher method). The format is physicochemical. Particulars: kept under ambient atmosphere for 2 days. From the text:
Among these compounds, compounds having higher hygroscopic properties may absorb moisture when kept under ambient atmosphere to form substances represented by the following formula: [drawing 15] wherein R1, R2, R3, R4, R5, R6, k, l, and Y are the same as those defined above; symbol "a" represents 0 or an arbitrary integer or represents an arbitrary fraction; and symbol "b" represents an arbitrary integer or an arbitrary fraction. For example, 3.3% weight increase was observed by Karl Fisher method after N-{5-(1-imidazolyl)-2-methoxyphenyl}methyl-N-(1-pentyl)-N'-[2-{3-(4-phenyl-1-piperazinyl)propoxy}-6-methylphenyl]urea dihydrochloride obtained in Example 3 was kept under ambient atmosphere for 2 days.

Data set [2] has as its system high cholesterol fed WISTAR male rats (total cholesterol in the serum). The data set is described as follows: Cholesterol reduction activity in high cholesterol fed rats. The format is in vivo, rat (WISTAR). Particulars: Rattus norvegicus, once a day for 5 days, 3.5 hours after final administration, probit analysis. The method, then: Cholesterol Reduction Activity in High Cholesterol Fed Rats
6-Week old WISTAR male rats were fed with high cholesterol solid feedstuff (Oriental Kobo Co., Ltd., 1% cholesterol, 0.5% cholic acid). Each group consisted of seven rats was compulsorily administered with 0.2% aqueous solution of a test compound (compound of Example 3) once a day at a dose of 1 mg/kg, 3 mg/kg, 10 mg/kg, or 30 mg/kg for 5 days. One group consisted of seven rats was fed with the same high cholesterol feedstuff and used as a control group. After 3.5 hours from the final administration, blood was collected from the abdominal aorta and the total cholesterol in the serum was measured. The reduction rate of total cholesterol was represented as a ratio between a control group not administered with the drug (seven rats) and examined by the probit analysis.

Data set [3] addresses T2, ACAT in foamed macrophages (Mus musculus, UniProt Q61263).
T2 construct: endogenous in cells; host or cells: peritoneal macrophages of ddY female mice, foamed with acetylated LDL
T2 sequence (Q61263 1-540): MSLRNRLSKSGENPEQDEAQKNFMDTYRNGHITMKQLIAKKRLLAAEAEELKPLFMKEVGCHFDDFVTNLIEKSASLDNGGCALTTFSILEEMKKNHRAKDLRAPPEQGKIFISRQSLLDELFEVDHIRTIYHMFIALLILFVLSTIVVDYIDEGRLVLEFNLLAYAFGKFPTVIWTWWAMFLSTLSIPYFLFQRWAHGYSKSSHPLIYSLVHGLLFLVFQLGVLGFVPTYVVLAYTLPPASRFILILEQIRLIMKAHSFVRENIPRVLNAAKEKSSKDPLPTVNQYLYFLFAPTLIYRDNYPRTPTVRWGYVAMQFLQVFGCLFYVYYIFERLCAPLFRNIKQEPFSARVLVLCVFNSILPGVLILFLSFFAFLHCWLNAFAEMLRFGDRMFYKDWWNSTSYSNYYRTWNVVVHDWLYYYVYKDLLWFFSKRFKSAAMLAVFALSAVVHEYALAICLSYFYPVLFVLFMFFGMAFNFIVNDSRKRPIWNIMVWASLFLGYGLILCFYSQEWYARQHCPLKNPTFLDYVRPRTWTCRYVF
The data set is described as follows: Inhibitory activity against ACAT derived from foamed macrophages. It is filed as cell-based, mouse (ddY female mice). Particulars: foamed macrophages from ddY female mice; acetylated LDL, 24 hours; cholesterol oleate produced; read-out: Inhibitory activity against ACAT, Macrophage (IC50). The method, then: Inhibitory Activity against ACAT Derived from Foamed Macrophages
Inhibitory activity of the compounds of the present invention against ACAT in foamed macrophages was measured by the methods set out below. Acetylated low density lipoprotein was added to macrophages taken from abdominal cavities of ddY female mice and the cells were incubated for 24 hours to obtain foaming macrophages. These cells accumulated a large amount of cholesterol (ester) inside the cells, and are used as a model of arteriosclerosis lesion. ACAT activity of the cells was determined by adding a complex of radio-labelled oleic acid and bovine serum albumin to the cell culture, and observing the amount of radio-labelled cholesterol oleate that was produced from the radio-labelled oleic acid in the cells. The inhibitory activities of the compounds of the present invention against ACAT were measured as follows: percent reduction rates of enzymatic activity by the addition of given concentrations of test compounds was observed on the basis of the amount of the produced cholesterol oleate in the control group without the addition of a test compound, and by using the results, IC50, i.e., concentrations of tested compounds required to inhibit 50% of the enzyme activity, was calculated.

Structures are written as SMILES.

A word on the IC50: it is the point on the concentration scale where inhibition reaches its midpoint. As for `CCCCCN(Cc1cc(-n2ccnc2)ccc1OC)C(=O)Nc1c(C)cccc1OCCCN1CCN(c2ccccc2)CC1.Cl.Cl` [Example 3, N-{5-(1-imidazolyl)-2-methoxyphenyl}methyl-N-(1-pentyl)-N'-[2-{3-(4-phenyl-1-piperazinyl)propoxy}-6-methylphenyl]urea dihydrochloride], 108 nM corresponded to half-maximal inhibition against ACAT of HepG2 cells (IC50). In addition, the “weight increase (moisture absorption)” value in data set [1] came to 3.3%. In addition, the ED10 in data set [2] (10% reduction of serum total cholesterol vs control, read-out: Dose of test compound for total cholesterol reduction rate 10%) is 1.9 mg/kg. For the same compound, in data set [2] (20% reduction of serum total cholesterol vs control, read-out: Dose of test compound for total cholesterol reduction rate 20%), the ED20 stood at 3.6 mg/kg. Also, the ED25 in data set [2] (25% reduction of serum total cholesterol vs control, read-out: Dose of test compound for total cholesterol reduction rate 25%) was 4.6 mg/kg. Also, the ED30 in data set [2] (30% reduction of serum total cholesterol vs control, read-out: Dose of test compound for total cholesterol reduction rate 30%) came out at 5.7 mg/kg. For the same compound, the ED50 in data set [2] (50% reduction of serum total cholesterol vs control, read-out: Dose of test compound for total cholesterol reduction rate 50%) was determined as 12.1 mg/kg.

For `CCCCCN(Cc1ccc(OC)c(-n2ccnc2)c1)C(=O)Nc1c(C)cccc1OCCCN1CCN(c2ccccc2)CC1` [Example 58], the 50% inhibitory concentration (IC50) on ACAT of HepG2 cells was 584 nM; in data set [3], 1050 nM.

For the origin of these results see US5807860A, “Urea derivatives” (Mitsubishi Chemical Corporation, priority 1995, dated 1998).
